# Assay: The drug is tested on Clostridium sp. strain: fecal isolate for biotransformation. The drug concentrations were measured before and after a 12-h incubation by liquid-chromatography-coupled mass spectrometry (LC–MS)
# Conditions: 2 µM
row,Structure (SMILES),Bacterial Biotransformation
1,COc1ccc2c(c1)c(CC(=O)O)c(C)n2C(=O)c1ccc(Cl)cc1 [INDOMETHACIN],Compound NOT metabolized
2,CN1CCN(C(=O)O[C@H]2c3nccnc3C(=O)N2c2ccc(Cl)cn2)CC1 [ESZOPICLONE],Compound metabolized
3,COc1ccc2c3c1O[C@H]1C[C@@H](O)C=C[C@@]31CCN(C)C2 [GALANTAMINE],Compound NOT metabolized

# Conditions: bifidobacterium adolescentis, 12 h, 2 µM
# Description: The drug is tested on Bifidobacterium adolescentis strain: ATCC 15703 for biotransformation. The drug concentrations were measured before and after a 12-h incubation by liquid-chromatography-coupled mass spectrometry (LC–MS)
row,Structure (SMILES),Bacterial Biotransformation
1,COc1ccc2c(c1)c(CC(=O)O)c(C)n2C(=O)c1ccc(Cl)cc1 [INDOMETHACIN],Compound NOT metabolized
2,COc1ccc2c3c1O[C@H]1C[C@@H](O)C=C[C@@]31CCN(C)C2 [GALANTAMINE],Compound NOT metabolized

# Assay: The drug is tested on Enterococcus faecalis strain: V583 for biotransformation. The drug concentrations were measured before and after a 12-h incubation by liquid-chromatography-coupled mass spectrometry (LC–MS)
# Conditions: 2 µM
row,Structure (SMILES),Bacterial Biotransformation
1,COc1ccc2c(c1)c(CC(=O)O)c(C)n2C(=O)c1ccc(Cl)cc1 [INDOMETHACIN],Compound NOT metabolized
2,CN1CCN(C(=O)O[C@H]2c3nccnc3C(=O)N2c2ccc(Cl)cn2)CC1 [ESZOPICLONE],Compound NOT metabolized
3,COc1ccc2c3c1O[C@H]1C[C@@H](O)C=C[C@@]31CCN(C)C2 [GALANTAMINE],Compound metabolized

# Assay: The drug is tested on Escherichia coli strain: BW25113 for biotransformation. The drug concentrations were measured before and after a 12-h incubation by liquid-chromatography-coupled mass spectrometry (LC–MS)
# Conditions: 2 µM
row,Structure (SMILES),Bacterial Biotransformation
1,COc1ccc2c(c1)c(CC(=O)O)c(C)n2C(=O)c1ccc(Cl)cc1 [INDOMETHACIN],Compound metabolized
2,CN1CCN(C(=O)O[C@H]2c3nccnc3C(=O)N2c2ccc(Cl)cn2)CC1 [ESZOPICLONE],Compound NOT metabolized
3,COc1ccc2c3c1O[C@H]1C[C@@H](O)C=C[C@@]31CCN(C)C2 [GALANTAMINE],Compound NOT metabolized

# Conditions: bacteroides fragilis, 12 h, 2 µM
# Description: The drug is tested on Bacteroides fragilis strain: 3397 (T10) for biotransformation. The drug concentrations were measured before and after a 12-h incubation by liquid-chromatography-coupled mass spectrometry (LC–MS)
row,Structure (SMILES),Bacterial Biotransformation
1,COc1ccc2c(c1)c(CC(=O)O)c(C)n2C(=O)c1ccc(Cl)cc1 [INDOMETHACIN],Compound metabolized
2,COc1ccc2c3c1O[C@H]1C[C@@H](O)C=C[C@@]31CCN(C)C2 [GALANTAMINE],Compound metabolized

# Conditions: bacteroides thetaiotaomicron, 12 h, 2 µM
# Description: The drug is tested on Bacteroides thetaiotaomicron strain: VPI-5482 for biotransformation. The drug concentrations were measured before and after a 12-h incubation by liquid-chromatography-coupled mass spectrometry (LC–MS)
row,Structure (SMILES),Bacterial Biotransformation
1,COc1ccc2c(c1)c(CC(=O)O)c(C)n2C(=O)c1ccc(Cl)cc1 [INDOMETHACIN],Compound metabolized
2,CN1CCN(C(=O)O[C@H]2c3nccnc3C(=O)N2c2ccc(Cl)cn2)CC1 [ESZOPICLONE],Compound NOT metabolized
3,COc1ccc2c3c1O[C@H]1C[C@@H](O)C=C[C@@]31CCN(C)C2 [GALANTAMINE],Compound metabolized

# Assay: The drug is tested on Providencia rettgeri strain: DSM1131 for biotransformation. The drug concentrations were measured before and after a 12-h incubation by liquid-chromatography-coupled mass spectrometry (LC–MS)
# Assay type: ADME
# Design: dose 2 uM, timepoint 0 vs 12 hours
# Conditions: 2 µM
row,Structure (SMILES),Bacterial Biotransformation
1,COc1ccc2c(c1)c(CC(=O)O)c(C)n2C(=O)c1ccc(Cl)cc1 [INDOMETHACIN],Compound NOT metabolized
2,CN1CCN(C(=O)O[C@H]2c3nccnc3C(=O)N2c2ccc(Cl)cn2)CC1 [ESZOPICLONE],Compound NOT metabolized
3,COc1ccc2c3c1O[C@H]1C[C@@H](O)C=C[C@@]31CCN(C)C2 [GALANTAMINE],Compound NOT metabolized

# Assay: The drug is tested on Blautia hansenii strain: DSM20583 for biotransformation. The drug concentrations were measured before and after a 12-h incubation by liquid-chromatography-coupled mass spectrometry (LC–MS)
# Conditions: 2 µM
row,Structure (SMILES),Bacterial Biotransformation
1,COc1ccc2c(c1)c(CC(=O)O)c(C)n2C(=O)c1ccc(Cl)cc1 [INDOMETHACIN],Compound NOT metabolized
2,CN1CCN(C(=O)O[C@H]2c3nccnc3C(=O)N2c2ccc(Cl)cn2)CC1 [ESZOPICLONE],Compound NOT metabolized
3,COc1ccc2c3c1O[C@H]1C[C@@H](O)C=C[C@@]31CCN(C)C2 [GALANTAMINE],Compound NOT metabolized

# Assay: The drug is tested on Clostridium sporogenes strain: ATCC15579 for biotransformation. The drug concentrations were measured before and after a 12-h incubation by liquid-chromatography-coupled mass spectrometry (LC–MS)
# Conditions: 2 µM
row,Structure (SMILES),Bacterial Biotransformation
1,COc1ccc2c(c1)c(CC(=O)O)c(C)n2C(=O)c1ccc(Cl)cc1 [INDOMETHACIN],Compound NOT metabolized
2,CN1CCN(C(=O)O[C@H]2c3nccnc3C(=O)N2c2ccc(Cl)cn2)CC1 [ESZOPICLONE],Compound NOT metabolized
3,COc1ccc2c3c1O[C@H]1C[C@@H](O)C=C[C@@]31CCN(C)C2 [GALANTAMINE],Compound NOT metabolized

# Assay: The drug is tested on Clostridium scindens strain: ATCC35704 for biotransformation. The drug concentrations were measured before and after a 12-h incubation by liquid-chromatography-coupled mass spectrometry (LC–MS)
# Conditions: 2 µM
row,Structure (SMILES),Bacterial Biotransformation
1,COc1ccc2c(c1)c(CC(=O)O)c(C)n2C(=O)c1ccc(Cl)cc1 [INDOMETHACIN],Compound NOT metabolized
2,CN1CCN(C(=O)O[C@H]2c3nccnc3C(=O)N2c2ccc(Cl)cn2)CC1 [ESZOPICLONE],Compound NOT metabolized
3,COc1ccc2c3c1O[C@H]1C[C@@H](O)C=C[C@@]31CCN(C)C2 [GALANTAMINE],Compound NOT metabolized

# Conditions: parabacteroides distasonis, 12 h, 2 µM
# Description: The drug is tested on Parabacteroides distasonis strain: ATCC8503 for biotransformation. The drug concentrations were measured before and after a 12-h incubation by liquid-chromatography-coupled mass spectrometry (LC–MS)
row,Structure (SMILES),Bacterial Biotransformation
1,COc1ccc2c(c1)c(CC(=O)O)c(C)n2C(=O)c1ccc(Cl)cc1 [INDOMETHACIN],Compound metabolized
2,CN1CCN(C(=O)O[C@H]2c3nccnc3C(=O)N2c2ccc(Cl)cn2)CC1 [ESZOPICLONE],Compound NOT metabolized

# Assay: The drug is tested on Bifidobacterium breve strain: DSM20213 for biotransformation. The drug concentrations were measured before and after a 12-h incubation by liquid-chromatography-coupled mass spectrometry (LC–MS)
# Conditions: 2 µM
row,Structure (SMILES),Bacterial Biotransformation
1,COc1ccc2c(c1)c(CC(=O)O)c(C)n2C(=O)c1ccc(Cl)cc1 [INDOMETHACIN],Compound NOT metabolized
2,CN1CCN(C(=O)O[C@H]2c3nccnc3C(=O)N2c2ccc(Cl)cn2)CC1 [ESZOPICLONE],Compound NOT metabolized
3,COc1ccc2c3c1O[C@H]1C[C@@H](O)C=C[C@@]31CCN(C)C2 [GALANTAMINE],Compound NOT metabolized

# Assay: The drug is tested on Ruminococcus lactaris strain: ATCC29176 for biotransformation. The drug concentrations were measured before and after a 12-h incubation by liquid-chromatography-coupled mass spectrometry (LC–MS)
# Conditions: 2 µM
row,Structure (SMILES),Bacterial Biotransformation
1,CN1CCN(C(=O)O[C@H]2c3nccnc3C(=O)N2c2ccc(Cl)cn2)CC1 [ESZOPICLONE],Compound NOT metabolized
2,COc1ccc2c3c1O[C@H]1C[C@@H](O)C=C[C@@]31CCN(C)C2 [GALANTAMINE],Compound NOT metabolized

# Assay: The drug is tested on Bacteroides caccae strain: ATCC43185 for biotransformation. The drug concentrations were measured before and after a 12-h incubation by liquid-chromatography-coupled mass spectrometry (LC–MS)
# Conditions: 2 µM
row,Structure (SMILES),Bacterial Biotransformation
1,COc1ccc2c(c1)c(CC(=O)O)c(C)n2C(=O)c1ccc(Cl)cc1 [INDOMETHACIN],Compound metabolized
2,CN1CCN(C(=O)O[C@H]2c3nccnc3C(=O)N2c2ccc(Cl)cn2)CC1 [ESZOPICLONE],Compound NOT metabolized
3,COc1ccc2c3c1O[C@H]1C[C@@H](O)C=C[C@@]31CCN(C)C2 [GALANTAMINE],Compound NOT metabolized

# Assay: The drug is tested on Bacteroides cellulosilyticus strain: DSM14838 for biotransformation. The drug concentrations were measured before and after a 12-h incubation by liquid-chromatography-coupled mass spectrometry (LC–MS)
# Conditions: 2 µM
row,Structure (SMILES),Bacterial Biotransformation
1,COc1ccc2c(c1)c(CC(=O)O)c(C)n2C(=O)c1ccc(Cl)cc1 [INDOMETHACIN],Compound metabolized
2,CN1CCN(C(=O)O[C@H]2c3nccnc3C(=O)N2c2ccc(Cl)cn2)CC1 [ESZOPICLONE],Compound metabolized
3,COc1ccc2c3c1O[C@H]1C[C@@H](O)C=C[C@@]31CCN(C)C2 [GALANTAMINE],Compound NOT metabolized

# Assay: The drug is tested on Bacteroides vulgatus strain: ATCC8482 for biotransformation. The drug concentrations were measured before and after a 12-h incubation by liquid-chromatography-coupled mass spectrometry (LC–MS)
# Conditions: phocaeicola vulgatus, 2 µM
row,Structure (SMILES),Bacterial Biotransformation
1,COc1ccc2c(c1)c(CC(=O)O)c(C)n2C(=O)c1ccc(Cl)cc1 [INDOMETHACIN],Compound metabolized
2,CN1CCN(C(=O)O[C@H]2c3nccnc3C(=O)N2c2ccc(Cl)cn2)CC1 [ESZOPICLONE],Compound metabolized
3,COc1ccc2c3c1O[C@H]1C[C@@H](O)C=C[C@@]31CCN(C)C2 [GALANTAMINE],Compound metabolized

# Conditions: parabacteroides johnsonii, 12 h, 2 µM
# Description: The drug is tested on Parabacteroides johnsonii strain: DSM18315 for biotransformation. The drug concentrations were measured before and after a 12-h incubation by liquid-chromatography-coupled mass spectrometry (LC–MS)
row,Structure (SMILES),Bacterial Biotransformation
1,COc1ccc2c(c1)c(CC(=O)O)c(C)n2C(=O)c1ccc(Cl)cc1 [INDOMETHACIN],Compound metabolized
2,CN1CCN(C(=O)O[C@H]2c3nccnc3C(=O)N2c2ccc(Cl)cn2)CC1 [ESZOPICLONE],Compound metabolized
3,COc1ccc2c3c1O[C@H]1C[C@@H](O)C=C[C@@]31CCN(C)C2 [GALANTAMINE],Compound NOT metabolized

# Assay: The drug is tested on Odoribacter splanchnicus strain: fecal isolate for biotransformation. The drug concentrations were measured before and after a 12-h incubation by liquid-chromatography-coupled mass spectrometry (LC–MS)
# Conditions: 2 µM
row,Structure (SMILES),Bacterial Biotransformation
1,COc1ccc2c(c1)c(CC(=O)O)c(C)n2C(=O)c1ccc(Cl)cc1 [INDOMETHACIN],Compound metabolized
2,CN1CCN(C(=O)O[C@H]2c3nccnc3C(=O)N2c2ccc(Cl)cn2)CC1 [ESZOPICLONE],Compound metabolized
3,COc1ccc2c3c1O[C@H]1C[C@@H](O)C=C[C@@]31CCN(C)C2 [GALANTAMINE],Compound NOT metabolized

# Conditions: segatella copri, 12 h, 2 µM
# Description: The drug is tested on Prevotella copri strain: DSM18205 for biotransformation. The drug concentrations were measured before and after a 12-h incubation by liquid-chromatography-coupled mass spectrometry (LC–MS)
row,Structure (SMILES),Bacterial Biotransformation
1,COc1ccc2c(c1)c(CC(=O)O)c(C)n2C(=O)c1ccc(Cl)cc1 [INDOMETHACIN],Compound metabolized
2,COc1ccc2c3c1O[C@H]1C[C@@H](O)C=C[C@@]31CCN(C)C2 [GALANTAMINE],Compound metabolized

# Conditions: anaerostipes sp., 12 h, 2 µM
# Description: The drug is tested on Anaerostipes sp. strain: fecal isolate for biotransformation. The drug concentrations were measured before and after a 12-h incubation by liquid-chromatography-coupled mass spectrometry (LC–MS)
row,Structure (SMILES),Bacterial Biotransformation
1,COc1ccc2c(c1)c(CC(=O)O)c(C)n2C(=O)c1ccc(Cl)cc1 [INDOMETHACIN],Compound metabolized
2,CN1CCN(C(=O)O[C@H]2c3nccnc3C(=O)N2c2ccc(Cl)cn2)CC1 [ESZOPICLONE],Compound NOT metabolized
3,COc1ccc2c3c1O[C@H]1C[C@@H](O)C=C[C@@]31CCN(C)C2 [GALANTAMINE],Compound metabolized

# — ChEMBL document CHEMBL5303573, “Mapping human microbiome drug metabolism by gut bacteria and their genes” (Nature, 2019)
